# According to US20050101673A1, “Use of orally available prostacyclin derivatives for the production of a pharmaceutical agent for treating diseases that are associated with bone marrow edemas” (Schering AG, priority 2002, published 2005):
# Key:
# osteonecrosis = conditions: five-day intravenous infusion; cited from earlier work
# [1] = tested on: patients with osteonecrosis or osteoarthritis of the knee; assay: Random, double-blind comparison study of oral iloprost versus Tramadol; type: in vivo, human
# Method: To confirm the action of oral iloprost on the bone marrow edema and the pain, a random, double-blind comparison study was performed on the opiate Tramadol® in 41 patients with osteonecrosis or osteoarthritis of the knee in the period from March 2001 to November 2002 according to the GCP guidelines.
# Patients of both sexes with resting pain because of an osteonecrosis or osteoarthritis were included in the study if the following criteria were met: • Age between 19 and 60 years, • Bone marrow edema found by means of MRT according to specified criteria.
# The treatment was carried out either with iloprost capsules or with outwardly indistinguishable Tramadol capsules that were packaged and characterized according to valid GLP rules. Each capsule contained either 50 μg of iloprost or 50 mg of Tramadol®.
# During the first three days of treatment, the study medication was administered in a dosage of 3×1 capsules during the day, which starting on day 4 could be increased individually to increase the success of the therapy (alleviation of pain) up to a maximum dose of 3×2 capsules during the day. In the case of poor tolerance, the dosage could always be reduced to a minimum dose of 2×1 capsules during the day.
# The treatment period was one month, followed by a follow-up observation period of two months during which no treatment was given. Previously administered pain-relieving medications should be discontinued before the beginning of the study.
# The clinical action of the treatment was determined based on the following parameters: • Evaluation of the intensity of the resting pain and the activity-related pain by the patient based on a 100 mm scale, whereby 0 means “no pain,” and 100 means “intolerable pain.” • Evaluation of the functional condition of the knee by means of Larson scores. • Evaluation of the bone marrow edema by means of MRT.
# [2] = tested on: patients with painful bone marrow edema; assay: 28-day treatment of patients with painful bone marrow edema (summary statements); type: in vivo, human; conditions: 28-day oral treatment; for pain and articulation: follow-up two months after end of treatment
# Text: Treatment with orally available prostacyclin derivatives, especially with cyclodextrin clathrates of the prostacyclin derivatives of formula I, thus represents a novel therapy that not only suppresses the symptoms, i.e., the pain, but combats the causes of osteonecrosis and osteoarthritis and for the first time can also be clinical, studied independently.
# The β-cyclodextrin clathrate of iloprost, (5- {(1S,5S,6R,7R)-7-hydroxy-6-[(E)-(3R,4RS)-3-hydroxy-4-methyl-oct-1-en-6-inyl]-bicyclo[3.3.0]octane-3-ylidene}pentanoic acid)-β-cyclodextrin clathrate, is especially suitable.
# [3] = after 28 days of treatment, persists 2 months without therapy
# [4] = listed as iloprost β-cyclodextrin clathrate
# [5] = listed as β-cyclodextrin clathrate of iloprost
smiles,measurement,setting,value
"CC#CCC(C)[C@H](O)/C=C/[C@@H]1[C@H]2C/C(=C/CCCC(=O)O)C[C@H]2C[C@H]1O.NC(CO)(CO)CO (some centres unmarked) [Ilomedin®, iloprost-trometamol]",pain in osteonecrosis,osteonecrosis,alleviation of pain in osteonecrosis can be achieved
"COc1cccc(C2(O)CCCCC2CN(C)C)c1 (centres unmarked) [Tramadol®, reference compound]","activity-related pain, 100 mm visual analog scale",[1]; [3],considerable reduction in pain
same,"resting pain, 100 mm visual analog scale",[1]; [3],Almost complete freedom from pain
same,knee activity score according to Larson (maximum score 100),[1]; improvement persists 2 months without therapy,pronounced increase
same,patients with complete degeneration of the bone marrow edema in at least one affected bone,"[1]; one month treatment, MRT",19%
"CC#CCC(C)[C@H](O)/C=C/[C@@H]1[C@H]2C/C(=C/CCCC(=O)O)C[C@H]2C[C@H]1O (stereo partly drawn) [oral iloprost, (5-{(1S,5S,6R,7R)-7-hydroxy-6-[(E)-(3R,4RS)-3-hydroxy-4-methyl-oct-1-en-6-inyl]-bicyclo[3.3.0]octane-3-ylidene}pentanoic acid)-β-cyclodextrin clathrate]",pain and articulation,[2]; [4],alleviation of pain and the improved articulation could be observed even two months after the end of treatment
same,pain and articulation,[2]; [5],significant improvement of the pain
same,bone marrow edema,[2]; [4],reduced not only the bone marrow edema
same,"structural integrity of the bone, necrotic areas and lesions",[2]; [4],restored the structural integrity
same,bone marrow edema,[2]; [5],significant reduction of the bone marrow edema
same,"structural integrity of the bone, necrotic areas and lesions",[2]; [5],healing of necroses
